{
  "source": "EPA's ToxValDB 9.5 (doi:10.2903/j.efsa.2008.128r)",
  "key": {"[1]": {"test_system": "Typhlodromus pyri", "test": "LR50; higher = less toxic", "details": "not reported; mortality"}, "[2]": {"test_system": "Daphnia magna", "details": "chronic/long-term; duration: 21 days"}, "[3]": {"test_system": "Colinus virginianus", "details": "for LD50: acute, oral, mortality"}, "[4]": {"test_system": "Rattus norvegicus"}, "[5]": {"test_system": "Canidae", "details": "subchronic; duration: 90 days; oral; Dog Other; organ weight"}, "[6]": {"test_system": "Apis mellifera", "details": "acute; duration: 48 hours; oral; unspecified; mortality"}, "[7]": {"test_system": "Tagia sp."}, "[8]": {"test_system": "Anas platyrhynchos", "details": "oral, mortality"}, "[9]": {"test_system": "Oncorhynchus mykiss"}, "[10]": {"test_system": "Mus musculus", "details": "acute; oral; mortality"}},
  "data": [
    {"smiles": "CC(C)N1C(=O)N(c2ccccc2)CSC1=NC(C)(C)C", "note": "[Buprofezin]", "values": [
      {"measurement": "LR50", "setting": "[1]", "result": "> 3000", "unit": "g/ha"},
      {"measurement": "NOEC", "setting": "[2]", "result": 0.08, "unit": "mg/L"},
      {"measurement": "LD50", "setting": "[3]; diet", "result": "> 1310", "unit": "mg/kg-day"},
      {"measurement": "LD50", "setting": "[3]", "result": "> 2000", "unit": "mg/kg-day"},
      {"measurement": "NOEC", "setting": "[3]; developmental, development", "result": 48, "unit": "mg/kg-day"},
      {"measurement": "NOEC", "setting": "[3]; reproduction developmental, reproduction", "result": 198, "unit": "mg/kg-day"},
      {"measurement": "LD50", "setting": "[4]; acute, oral, mortality", "result": "> 2000", "unit": "mg/kg-day"},
      {"measurement": "NOAEL", "setting": "[4]; chronic, duration: 2 years, oral, diet, M/F, organ weight", "result": 0.9, "unit": "mg/kg-day"},
      {"measurement": "NOAEL", "setting": "[4]; developmental, development", "result": 50, "unit": "mg/kg-day"},
      {"measurement": "NOAEL", "setting": "[4]; reproduction developmental, body weight", "result": 66, "unit": "mg/kg-day"},
      {"measurement": "NOAEL", "setting": "[5]", "result": 10, "unit": "mg/kg-day"},
      {"measurement": "LD50", "setting": "[6]", "result": "> 164", "unit": "µg/piece"},
      {"measurement": "LC50", "setting": "[7]; acute, duration: 14 days, mortality", "result": "> 1000", "unit": "mg/kg"},
      {"measurement": "NOEC", "setting": "[7]; chronic/long-term, duration: 56 days, reproduction", "result": 500, "unit": "mg/kg"},
      {"measurement": "LD50", "setting": "[8]; acute, unspecified", "result": "> 2000", "unit": "mg/kg-day"},
      {"measurement": "LC50", "setting": "[8]; short-term, feed", "result": "> 1310", "unit": "mg/kg-day"},
      {"measurement": "LC50", "setting": "[9]; acute, duration: 96 hours, mortality", "result": "> 0.33", "unit": "µg/mL"},
      {"measurement": "NOEC", "setting": "[9]; chronic/long-term, growth", "result": 0.052, "unit": "mg/L"},
      {"measurement": "LD50", "setting": "[10]", "result": "> 2000", "unit": "mg/kg-day"}
    ]}
  ]
}
